Experimental data reported in ChEMBL document CHEMBL1136370, “Structure-activity relationship on human serum paraoxonase (PON1) using substrate analogues and inhibitors” (Bioorg Med Chem Lett, 2003).
pIC50: −log10 of the molar value.

Key:
[1] = target: T1, Serum paraoxonase/arylesterase 1 (Homo sapiens, UniProt P27169); test: Inhibitory activity against human serum paraoxonase (PON1); Not active
[2] = tested on: PON1; test: Time taken for 50% to be consumed by serum PON1 was determined; format: ADME; conditions: human
[3] = target: T1, Serum paraoxonase/arylesterase 1; test: Inhibitory activity against human serum paraoxonase (PON1)
[4] = Time taken for 50% to be consumed by serum PON1; NH is Not hydrolysed; format: ADME; conditions: human

T1 sequence (P27169 whole entry): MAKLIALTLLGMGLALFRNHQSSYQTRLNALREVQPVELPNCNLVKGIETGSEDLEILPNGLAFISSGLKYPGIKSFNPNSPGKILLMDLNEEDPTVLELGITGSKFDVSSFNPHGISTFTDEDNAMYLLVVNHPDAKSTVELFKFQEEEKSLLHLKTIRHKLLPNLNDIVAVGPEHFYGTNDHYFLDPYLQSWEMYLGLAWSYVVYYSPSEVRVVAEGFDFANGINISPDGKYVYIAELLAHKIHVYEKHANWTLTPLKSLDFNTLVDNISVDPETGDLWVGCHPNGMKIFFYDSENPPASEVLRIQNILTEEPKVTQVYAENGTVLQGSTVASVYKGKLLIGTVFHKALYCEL

Structure (SMILES)	IC50 [1]	half-life [2] [min]	pIC50 [3]	T1/2 [4]
CC(=O)Oc1ccc(N)cc1	Not Active	20		
COc1ccc(OC(C)=O)cc1	Not Active	20		
CCOP(=O)(OCC)Oc1ccc(N)cc1			2.89	Not hydrolysed
CC(=O)Oc1ccc([N+](=O)[O-])cc1 [4-NITROPHENYL ACETATE]	Not Active	3.5		
CC(=O)Oc1ccccc1 [ACETIC ACID PHENYL ESTER]	Not Active	1.5		
CCOP(=O)(OCC)Oc1ccc([N+](=O)[O-])cc1 [PARAOXON]	Not Active	1460		
O=P(O)(O)Oc1ccccc1 [PHENYL DIHYDROGEN PHOSPHATE]			2.49	Not hydrolysed
CCOP(=O)(OCC)Oc1ccccc1 [PHOSPHORIC ACID DIETHYL ESTER PHENYL ESTER]			2.49	Not hydrolysed
O=[N+]([O-])c1ccc(OP(=O)(O)O)cc1 [p-NITROPHENYLPHOSPHATE]			1.73	Not hydrolysed
